Reference: patent US20120315281A1, “TREATMENT OF RENAL INJURY” (THE PENN STATE RESEARCH FOUNDATION, priority 2011, published 2012)

Experiments:
Assay type in all cases: in vivo, mouse
[1] = tested on: STZ-induced diabetic mice; assay: Glomerular macrophage recruitment, Mac-2 staining, STZ-induced diabetic mice; conditions: arginase inhibitor 6 weeks, p<0.0001 vs vehicle-treated diabetic
Procedure: (§1) Experiments were conducted in male Ins2^Akita and their wild type (WT) littermate mice (DBA background; Jackson Laboratories) starting at 5 weeks of age until 14 weeks of age and were approved by the Pennsylvania State University College of Medicine Institutional Animal Care and Use Committee (PSU IACUC). The Ins2^Akita mice were recommended by the Animal Models of Diabetes Complications Consortium as an optimal model of diabetic nephropathy, and the mice developed hyperglycemia at 3 weeks of age. […]
(§2) BEC, a selective arginase antagonist (2.3 mg/kg/day, Cayman Chemical, Ann Arbor, Mich., USA), or vehicle (phosphate-buffered saline) was administered by continuous subcutaneous infusion for 9 weeks (in Ins2^Akita experiments) or for 6 wks (in STZ DBA mice experiments) via a mini-osmotic pump (Alzet; Durect Corporation, Palo Alto, Calif., USA) as described in CIRCULATION RESEARCH, 102(8):923-32, Apr. […] The condition of mice and body weight were monitored daily following the pump implantation.
Immunohistochemistry for macrophages was performed in mice using rat anti-mouse Mac-2 monoclonal antibody; clone M3/38 (Cedarlane, Burlington, N.C., US) on paraffin sections. […] The number of glomerular macrophages were counted in twenty glomeruli per section (number of macrophages in glomeruli divided by the number of glomeruli) in blinded fashion under 40× magnification and averaged.

[2] = tested on: Ins2^Akita and their wild type littermate mice; assay: Characteristics of Ins2^Akita and wild type littermate mice (glucose, body weight, kidney weight, body composition) with or without arginase inhibitor; conditions: BEC 2.3 mg/kg/day 9 weeks, 14-week of age, mean ± SEM
Procedure: Experiments were conducted in male Ins2^Akita and their wild type (WT) littermate mice (DBA background; Jackson Laboratories) starting at 5 weeks of age until 14 weeks of age and were approved by the Pennsylvania State University College of Medicine Institutional Animal Care and Use Committee (PSU IACUC). The Ins2^Akita mice were recommended by the Animal Models of Diabetes Complications Consortium as an optimal model of diabetic nephropathy, and the mice developed hyperglycemia at 3 weeks of age. Additional experiments were conducted in male 6-week-old mice (DBA background; Jackson Laboratories), arginase-2 (Arg2) wild type […] mice on C57B1/6 background weighing 20-22 g and were approved by the PSU IACUC. After an overnight fast, animals were given multiple low doses of vehicle or STZ (Sigma, St. Louis, Mo.; 50 mg/kg body wt dissolved in lactated Ringers solution) via intraperitoneal injection.
BEC, a selective arginase antagonist (2.3 mg/kg/day, Cayman Chemical, Ann Arbor, Mich., USA), or vehicle (phosphate-buffered saline) was administered by continuous subcutaneous infusion for 9 weeks (in Ins2^Akita experiments) or for 6 wks (in STZ DBA mice experiments) via a mini-osmotic pump (Alzet; Durect Corporation, Palo Alto, Calif., USA) as described in CIRCULATION RESEARCH, 102(8):923-32, Apr. 25, 2008. The osmotic pump was incubated in phosphate buffer saline (PBS) for 60-h at 37° C. prior to implantation and was implanted dorsally between shoulders. The condition of mice and body weight were monitored daily following the pump implantation.
(§3) Urinary albumin excretion (UAE) was measured by ELISA using Albuwell M (Exocell, Philadelphia, Pa.) as described previously. Blood urea nitrogen (BUN) was measured using (VITROS DT60II chemistry slides; Ortho-Clinical Diagnostics, Rochester, N.Y.). Body composition was determined using LF90 Minispec Time Domain Nuclear Magnetic Resonance Spectrometer (Bruker Optics, Billerica Mass.). […]

[3] = tested on: STZ-induced diabetic mice (DBA background); assay: 24-hr urinary albumin excretion in STZ-induced diabetic mice (DBA background); conditions: BEC 2.3 mg/kg/day 6 weeks, vs vehicle-treated diabetic, FIG. 6
Procedure: After an overnight fast, animals were given multiple low doses of vehicle or STZ (Sigma, St. Louis, Mo.; 50 mg/kg body wt dissolved in lactated Ringers solution) via IP injection. Mice were treated with the arginase-specific inhibitor BEC (2.3 mg/kg/day) or vehicle via osmotic minipump for 6 weeks. Urine was collected for measurement of UAE after 6 weeks. Data are presented as mean±SEM.
Experiments were conducted in male Ins2^Akita and their wild type (WT) littermate mice (DBA background; Jackson Laboratories) starting at 5 weeks of age until 14 weeks of age and were approved by the Pennsylvania State University College of Medicine Institutional Animal Care and Use Committee (PSU IACUC). […]
as §2
Urinary albumin excretion (UAE) was measured by ELISA using Albuwell M (Exocell, Philadelphia, Pa.) as described previously. […]

[4] = tested on: eNOS deficient and their wild type (WT) littermate mice; assay: Urinary albumin excretion in STZ-diabetic eNOS deficient and wild type littermate mice; conditions: BEC 2.3 mg/kg/day s.c. infusion 6 weeks, FIG. 14
Procedure: Experiments were conducted using multiple low doses of STZ (50 mg/kg body weight for 5 days). Arginase inhibition using BEC (2.3 mg/kg/day) or vehicle was administered by continuous subcutaneous infusion for 6 weeks via a mini-osmotic pump. Data is shown for 6 weeks after STZ-induced diabetes.
Urinary albumin excretion (UAE) was measured by ELISA using Albuwell M (Exocell, Philadelphia, Pa.) as described previously. Blood urea nitrogen (BUN) was measured using (VITROS DT60II chemistry slides; Ortho-Clinical Diagnostics, Rochester, N.Y.). Body composition was determined using LF90 Minispec Time Domain Nuclear Magnetic Resonance Spectrometer (Bruker Optics, Billerica Mass.).
eNOS deficient mice are recommended by the Animal Models of Diabetes Complications Consortium (AMDCC) as an optimal model of diabetic nephropathy. Experiments were conducted in male 6-week-old eNOS deficient and their wild type (WT) littermate mice using multiple low doses of STZ (50 mg/kg body weight for 5 days). Arginase inhibition using BEC (2.3 mg/kg/day) or vehicle was administered by continuous subcutaneous infusion for 6 weeks via a mini-osmotic pump. Renal function was monitored throughout the study.

arginase 2 mRNA = assay: Kidney arginase 2 mRNA expression by RT-PCR in Ins2^Akita mice; conditions: whole kidney RNA, Ins2^Akita mice at 14 weeks of age; normalized to GAPDH, relative to control; FIG. 5
Procedure: FIGS. 5A and 5B show the effect of arginase inhibition on arginase 2 mRNA expression in Ins2^Akita mice. Real-time polymerase chain reaction (RT-PCR) was performed on whole mouse kidney total RNA isolated at 14 weeks of age. […] In FIG. 5B, expression of arginase 2 mRNA was normalized to GAPDH and data were calculated as expression relative to control.
Total RNA was extracted from mouse kidneys using RNeasy Mini Kit (Qiagen, Gumbh, Hilden, Germany). Single-strand cDNA was synthesized using iScript cDNA Synthesis Kits (Bio-Rad, Hercules, Calif.) for two-step real-time polymerase chain reaction (RT-PCR). Gene-specific primers for ARG1 and ARG2 were designed using Beacon Designer Probe/Primer Design Software (Premier Biosoft International, Palo Alto, Calif.). Specificity of the PCR products was verified by melting curve analysis. Quantitative real-time PCR was performed using a Bio-Rad CFX96 system (Hercules, Calif.). Reactions were performed in duplicate, and threshold cycle numbers were averaged. Samples were calculated with normalization to GAPDH.
RT-PCR was performed on whole mouse kidney total RNA isolated at 14 weeks of age. […] In FIG. 5B, expression of arginase 2 mRNA was normalized to GAPDH and data were calculated as expression relative to control.

Ins2^Akita mice = assay: 24-hr urinary albumin excretion (UAE) in Ins2^Akita mice; conditions: BEC 2.3 mg/kg/day 9 weeks, at 14 weeks of age, vs vehicle, FIG. 1
Procedure: The Ins2^Akita and their wild type (WT) littermate mice were treated with the arginase-specific inhibitor S-(2-Boronoethyl)-L-cysteine (BEC) (2.3 mg/kg/day) or vehicle via osmotic minipump for 9 weeks. Urine was collected for measurement of UAE before treatment (at 5 weeks of age) and after treatment (at 14 weeks of age). In FIG. 1, the open bars are vehicle treated groups and filled bars are arginase inhibitor treated groups. Data are presented as mean±SEM. […]
as §2, §3

[5] = tested on: Ins2^Akita and their wild type littermate mice; assay: Glomerular macrophage recruitment, Mac-2 immunohistochemistry, Ins2^Akita experiment; conditions: 14 weeks of age
Procedure: FIGS. 2A-2D show the effect of arginase inhibition on macrophage recruitment in Ins2^Akita mice using immunohistochemistry.
Immunohistochemistry for macrophages was performed in mice using rat anti-mouse Mac-2 monoclonal antibody; clone M3/38 (Cedarlane, Burlington, N.C., US) on paraffin sections. Sections were incubated with primary antibody (50 μg/ml) followed by a biotinylated goat IgG anti-rat (Vector Laboratories, Burlingame, Calif.) secondary antibody according to the manufacturer's protocol. Sections were viewed using an Olympus BX51 microscope and DP71 digital camera using MicroSuite Basic 2.6 imaging software. Images were taken with 100× (oil) objective with a total magnification of 1000×. The number of glomerular macrophages were counted in twenty glomeruli per section (number of macrophages in glomeruli divided by the number of glomeruli) in blinded fashion under 40× magnification and averaged.
To determine whether arginases are critical for kidney macrophage infiltration in diabetic nephropathy, the distribution and quantitation of macrophages in kidneys by immunohistochemistry (Mac-2 positive macrophages) were analyzed. […]

[6] = tested on: Ins2^Akita and their wild type littermate mice; assay: Blood urea nitrogen (BUN) in Ins2^Akita and wild type littermate mice; conditions: BEC 2.3 mg/kg/day 9 weeks, 14-week of age, mean ± SEM
Procedure: as §1, §2, §3

[7] = tested on: STZ-induced diabetic mice (DBA background); assay: Renal histological changes, PAS staining, STZ-induced diabetic mice (DBA background)
Excerpt: Sections were stained with Periodic acid-Schiff (PAS) and all glomeruli were examined at 40×. Images were taken with 100× (oil) objective with a total magnification of 1000×. […] Adjacent tubular basement membranes stain PAS positive as well.
Kidneys from mice were fixed in 4% paraformaldehyde, embedded in paraffin, and 3-μm sections were cut. Sections were stained with Periodic acid-Schiff (PAS) stain and all glomeruli were examined at 40× (TKC) in a masked fashion. All images were obtained with an Olympus BX51 microscope and DP71 digital camera using MicroSuite Basic 2.6 imaging software. Images were taken with 100× (oil) objective with a total magnification of 1000×. Semiquantitative scores (0-4+) were assigned based on the masked reading, as previously described. Each glomerulus on a single section was graded from 0 to 4+, where 0 represents no lesion, and 1, 2, 3, and 4+ represent mesangial matrix expansion or sclerosis, involving […] of the glomerular tuft area, respectively.

[8] = control (wild type littermate) mice

SMILES: N[C@@H](CSCCB(O)O)C(=O)O [BEC, S-(2-Boronoethyl)-L-cysteine]
- glomerular macrophage recruitment (Mac-2 staining) [1]: 1.2±0.06 macrophages/glomerulus
- Kidney weight ([2]; Ins2^Akita mice): 269 ± 10 mg
- KW/BW (kidney weight to body weight ratio) [2, 8]: 8.1 ± 0.1 mg/g
- Kidney weight [2, 8]: 262 ± 4 mg
- albuminuria (24-hr UAE) [3]: significantly reduced
- albuminuria (UAE) ([4]; diabetic WT mice (STZ), vs vehicle): significantly reduced
- UAE ([4]; diabetic eNOS deficient mice (STZ), vs vehicle treated diabetic mice): failed to reduce
- increase in arginase 2 mRNA expression (arginase 2 mRNA): ~1.5 fold
- Albuminuria (urinary albumin excretion) (Ins2^Akita mice): significantly reduced
- glomerular macrophage recruitment (Mac-2 positive) ([5]; Ins2^Akita mice treated with arginase inhibitor, p<0.0001 vs vehicle-treated Ins2^Akita, FIG. 2D): 0.9±0.14 macrophages/glomerulus
- glomerular macrophage recruitment (Mac-2 positive) ([5]; control mice treated with arginase inhibitor, FIG. 2C): 0.29±0.03 macrophages/glomerulus
- BUN ([6]; Ins2^Akita mice): 28 ± 3
- BUN [6, 8]: 28 ± 3
- PAS positive material, share of the mesangial matrix ([7]; representative PAS section from arginase inhibitor treated STZ mouse, FIG. 7C): < 25%
- glomerular changes (PAS, glomerular cellularity and mesangial expansion) score ([7]; semiquantitative score 0-4+, STZ-induced diabetic mice after 6 weeks, p<0.05 vs vehicle-treated STZ): 1.6±0.08
